Measurements reported in patent US12649750B2, “Macrocyclic compounds, compositions, and methods of using thereof” (Sionna Therapeutics Inc., priority 2022, dated 2026).

Key:
[1] = target: T1, NBD1 (Homo sapiens, UniProt P13569); experiment: Aggregation analysis using differential static light scattering (DSLS), thermal stability of NBD1 (ΔTagg); assay type: binding; details: ΔTagg versus DMSO control, NBD1 0.2 mg/ml
T1 construct: Purified recombinant NBD1 was produced using previously described methods; made in house
T1 sequence (P13569 423-646 limits assumed): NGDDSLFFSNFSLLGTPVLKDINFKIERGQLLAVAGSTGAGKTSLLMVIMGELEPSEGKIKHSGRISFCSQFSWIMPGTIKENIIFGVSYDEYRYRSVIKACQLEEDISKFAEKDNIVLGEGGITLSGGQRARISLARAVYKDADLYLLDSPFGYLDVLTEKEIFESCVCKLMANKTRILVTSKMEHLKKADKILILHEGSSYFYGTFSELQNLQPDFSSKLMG
How it was run: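 NBD1 0.2 mg/ml, S200 buffer (50 mM Tris-HCl, 150 mM NaCl, 5 mM MgCl2, 2 mM ATP, 2 mM DTT, pH7.6) + 1% glycerol; cpd in DMSO; oil overlay. Ramp 25→70° C. at 1° C./min, DSLS images every 0.5° C. ΔTagg = Tagg (inflection) − mean DMSO Tagg.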

[2] = target: T2, CFTR (Homo sapiens, UniProt P13569, DEL508-508); experiment: TECC24 AUC fold over DMSO @10 μM, CFTR-mediated transepithelial chloride transport in CF-HBE cells; assay type: cell-based; details: test agent AUC divided by DMSO vehicle AUC, primary CF-HBE cells, ΔF508 homozygous donor, 48 hours incubation
T2 construct: Primary human bronchial epithelial cells from a ΔF508 homozygous CF donor; host or cells: primary human bronchial epithelial cells (CF-HBE), ΔF508 homozygous donor
T2 sequence (P13569 with tags, fused parts or gaps DEL508-508): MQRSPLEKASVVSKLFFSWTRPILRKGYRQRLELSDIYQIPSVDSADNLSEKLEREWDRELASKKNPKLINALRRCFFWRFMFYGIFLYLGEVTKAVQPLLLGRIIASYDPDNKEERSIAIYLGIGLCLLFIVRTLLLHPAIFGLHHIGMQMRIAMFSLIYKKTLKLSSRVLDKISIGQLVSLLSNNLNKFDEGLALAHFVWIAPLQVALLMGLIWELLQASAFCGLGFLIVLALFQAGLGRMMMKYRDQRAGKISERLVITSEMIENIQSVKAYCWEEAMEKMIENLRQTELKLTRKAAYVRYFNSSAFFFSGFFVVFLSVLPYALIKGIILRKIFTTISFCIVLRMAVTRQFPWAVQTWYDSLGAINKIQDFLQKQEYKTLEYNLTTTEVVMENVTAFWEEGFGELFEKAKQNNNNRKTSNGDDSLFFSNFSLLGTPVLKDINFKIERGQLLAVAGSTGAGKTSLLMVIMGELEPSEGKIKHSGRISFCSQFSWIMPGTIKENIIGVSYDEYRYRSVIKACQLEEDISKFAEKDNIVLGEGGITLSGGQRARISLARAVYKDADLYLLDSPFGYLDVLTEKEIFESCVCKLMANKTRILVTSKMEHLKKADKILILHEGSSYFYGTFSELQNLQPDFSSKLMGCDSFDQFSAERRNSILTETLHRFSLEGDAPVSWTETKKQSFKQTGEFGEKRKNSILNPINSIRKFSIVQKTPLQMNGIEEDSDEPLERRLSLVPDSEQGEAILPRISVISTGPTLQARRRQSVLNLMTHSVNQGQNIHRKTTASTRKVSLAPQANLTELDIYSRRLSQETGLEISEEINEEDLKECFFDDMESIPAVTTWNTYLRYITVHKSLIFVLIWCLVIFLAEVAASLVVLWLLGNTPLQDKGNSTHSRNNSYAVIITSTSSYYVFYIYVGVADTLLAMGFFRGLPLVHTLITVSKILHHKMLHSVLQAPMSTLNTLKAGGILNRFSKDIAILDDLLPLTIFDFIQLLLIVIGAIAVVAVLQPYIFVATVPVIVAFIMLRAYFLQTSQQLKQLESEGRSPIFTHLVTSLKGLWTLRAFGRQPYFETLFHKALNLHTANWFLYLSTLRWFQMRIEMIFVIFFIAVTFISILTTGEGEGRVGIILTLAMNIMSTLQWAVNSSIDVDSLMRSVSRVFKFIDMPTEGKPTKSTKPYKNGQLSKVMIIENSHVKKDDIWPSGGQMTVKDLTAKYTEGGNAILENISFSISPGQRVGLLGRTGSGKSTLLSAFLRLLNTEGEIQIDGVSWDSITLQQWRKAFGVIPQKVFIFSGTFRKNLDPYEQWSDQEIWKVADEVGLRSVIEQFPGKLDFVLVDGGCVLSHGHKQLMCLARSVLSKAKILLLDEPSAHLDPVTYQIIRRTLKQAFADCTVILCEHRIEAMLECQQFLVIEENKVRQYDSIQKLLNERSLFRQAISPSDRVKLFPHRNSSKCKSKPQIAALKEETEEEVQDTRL
How it was run: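 Primary ΔF508-homozygous CF bronchial epithelial cells on inserts were incubated 48 h at 36.5 °C with compound in IL-13-containing medium. VT and TEER were then recorded in current-clamp mode (pH 7.4 HEPES bath) with benzamil 10 μM, forskolin 10 μM, then CFTR inhibitor-172 20 μM. The IEQ AUC between forskolin and inhibitor was divided by vehicle AUC.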

| SMILES | DSLS 3D (100 μM ΔT) [1] | TECC (AUC, 10 μM) [2] |
| --- | --- | --- |
| [2H]C([2H])([2H])C1(c2cccc(CC(C)C(=O)O)c2F)CCCC(C)(C)CS(=O)(=O)CCc2c(c(F)cc3[nH]ccc23)Oc2ccc(F)c(c2)-c2nc1nn2C (single isomer, unassigned) [Compound 18A, 3-[3-[22,28-difluoro-3,10,10-trimethyl-12,12-dioxo-6-(trideuteriomethyl)-24-oxa-12lambda6-thia-3,4,19,30-tetrazapentacyclo[23.3.1.12,5.015,23.016,20]triaconta-1(29),2(30),4,15,17,20,22,25,27-nonaen-6-yl]-2-fluoro-phenyl]-2-methyl-propanoic acid] | B (a value above 5 °C and less than or equal to 10 °C is marked “B”) | A (a TECC value less than 12 is marked “A”) |
| COCC(Cc1cccc([C@@]2(C)CCCC(C)(C)CS(=O)(=O)CCc3c(c(F)cc4[nH]ccc34)Oc3ccnc(c3)-c3nc2nn3C)c1)C(=O)O (single isomer, unassigned) [Compound 285] | C (a value greater than 10 °C and less than or equal to 25 °C is marked “C”) | C (a value between 20 and 80 is marked “C”) |
| CC(CC(=O)O)c1cccc(C2(C)CCOC(C)(C)CS(=O)(=O)CCc3c(c(F)cc4[nH]ccc34)Oc3ccc(F)c(c3)-c3nc2nn3C)c1 (single isomer, unassigned) [Compound 72B, 3-[3-(22,28-difluoro-3,6,10,10-tetramethyl-12,12-dioxo-9,24-dioxa-12lambda6-thia-3,4,19,30-tetrazapentacyclo-[23.3.1.12,5.015,23.016,20]triaconta-1(29),2(30),4,15,17,20,22,25,27-nonaen-6-yl)phenyl]-butanoic Acid] | A (an ΔTagg value less than or equal to 5 °C is marked “A”) | A (a TECC value less than 12 is marked “A”) |
| Cn1nc2nc1-c1cc(ccc1F)Oc1c(F)cc3[nH]ccc3c1CCS(=O)(=O)CC(C)(C)CCCC2(C)c1cccc(C(O)CC(=O)O)c1 (stereo not drawn) [Compound 178, 3-[3-(22,28-Difluoro-3,6,10,10-tetramethyl-12,12-dioxo-24-oxa-12λ6-thia-3,4,19,30-tetrazapentacyclo[23.3.1.12,5.015,23.016,20]triaconta-1(29),2(30),4,15,17,20,22,25,27-nonaen-6-yl)phenyl]-3-hydroxy-propanoic Acid] | C (a value greater than 10 °C and less than or equal to 25 °C is marked “C”) | C (a value between 20 and 80 is marked “C”) |
| C[C@@H](Cc1cccc([C@@]2(C)CCCC(C)(C)CS(=O)(=O)CCc3c(c(F)cc4[nH]ccc34)[S+]([O-])c3ccnc(c3)-c3nc2cs3)c1)C(=O)O (single isomer, unassigned) [Compound 239A] | A (an ΔTagg value less than or equal to 5 °C is marked “A”) | B (a value between 12-20 is marked “B”) |
| CC(Cc1cccc(C2(CNCC(F)(F)F)CCCC(C)(C)CS(=O)(=O)CCc3c(c(F)cc4[nH]ccc34)Oc3ccc(F)c(c3)-c3nc2nn3C)c1)C(=O)O (single isomer, unassigned) [Compound 133B, 3-[3-[22,28-difluoro-3,10,10-trimethyl-12,12-dioxo-6-[(2,2,2-trifluoroethylamino)methyl]-24-oxa-12λ6-thia-3,4,19,30-tetrazapentacyclo[23.3.1.12,5.015,23.016,20]triaconta-1(29),2(30),4,15,17,20,22,25,27-nonaen-6-yl]phenyl]-2-methyl-propanoic Acid] | B (a value above 5 °C and less than or equal to 10 °C is marked “B”) | A (a TECC value less than 12 is marked “A”) |
| Cn1nc2nc1-c1cc(ccc1F)Oc1c(F)cc3[nH]ccc3c1CCS(=O)(=O)CC(C)(C)CCCC2(CF)c1cccc(CCC(=O)O)c1 (stereo not drawn) [Compound 105, 3-[3-[22,28-Difluoro-6-(fluoromethyl)-3,10,10-trimethyl-12,12-dioxo-24-oxa-12lambda6-thia-3,4,19,30-tetrazapentacyclo-[23.3.1.12,5.015,23.016,20]triaconta-1(29),2(30),4,15,17,20,22,25,27-nonaen-6-yl]phenyl]propanoic acid] | B (a value above 5 °C and less than or equal to 10 °C is marked “B”) | A (a TECC value less than 12 is marked “A”) |
| CC(C)OC(=O)[C@@H](C)Cc1cccc(C2(C)CCCC(C)(C)CS(=O)(=O)CCc3c(c(F)cc4[nH]ccc34)Oc3ccc(F)c(c3)-c3nc2nn3C)c1 (single isomer, unassigned) [Compound 139] | B (a value above 5 °C and less than or equal to 10 °C is marked “B”) | C (a value between 20 and 80 is marked “C”) |
| CC(Cc1cccc(C2(C#N)CCCC(C)(C)CS(=O)(=O)CCc3c(c(F)cc4[nH]ccc34)Oc3ccc(F)c(c3)-c3nc2nn3C)c1F)C(=O)O (single isomer, unassigned) [Compound 124B, 3-[3-(6-cyano-22,28-difluoro-3,10,10-trimethyl-12,12-dioxo-24-oxa-12λ6-thia-3,4,19,30-tetrazapentacyclo-[23.3.1.12,5.015,23.016,20]triaconta-1(29),2(30),4,15,17,20,22,25,27-nonaen-6-yl)-2-fluoro-phenyl]-2-methyl-propanoic Acid] | B (a value above 5 °C and less than or equal to 10 °C is marked “B”) | A (a TECC value less than 12 is marked “A”) |
| CC(CC(=O)O)c1cccc(C2CCCC(C)(C)CS(=O)(=O)CCc3c(c(F)cc4[nH]ccc34)Oc3cccc(c3)-c3ccnn32)c1 (stereo not drawn) [Compound 53, 3-[3-(23-Fluoro-11,11-dimethyl-13,13-dioxo-25-oxa-13lambda6-thia-5,6,20-triazapentacyclo[24.3.1.02,6.016,24.017,21]triaconta-1(30),2,4,16,18,21,23,26,28-nonaen-7-yl)phenyl]butanoic acid] | A (an ΔTagg value less than or equal to 5 °C is marked “A”) | A (a TECC value less than 12 is marked “A”) |
| [2H]C([2H])([2H])C1(c2cccc(CC(C)C(=O)O)c2)CCC(C)(C)CCS(=O)(=O)CCc2c(c(F)cc3[nH]ccc23)Oc2ccc(F)c(c2)-c2nc1nn2C (single isomer, unassigned) [Compound 119A, 3-[3-[22,28-difluoro-3,9,9-trimethyl-12,12-dioxo-6-(trideuteriomethyl)-24-oxa-12lambda6-thia-3,4,19,30-tetrazapentacyclo[23.3.1.12,5.015,23.016,20]triaconta-1(29),2(30),4,15,17,20,22,25,27-nonaen-6-yl]phenyl]-2-methyl-propanoic acid] | A (an ΔTagg value less than or equal to 5 °C is marked “A”) | A (a TECC value less than 12 is marked “A”) |
| C[C@@H](Cc1cccc(C2(C)CCCC(C)(C)CS(=O)(=O)CCc3c(c(F)cc4[nH]ccc34)Oc3ccc(F)c(c3)-c3nc2c[nH]3)c1)C(=O)O (single isomer, unassigned) [Compound 129B] | C (a value greater than 10 °C and less than or equal to 25 °C is marked “C”) | A (a TECC value less than 12 is marked “A”) |
| CC(CC(=O)O)c1cccc([C@@]2(C)CCCC(C)(C)CS(=O)(=O)CCc3c(c(F)cc4[nH]ccc34)[S+]([O-])c3ccc(F)c(c3)-c3nc2nn3C)c1 (mixture of isomers) [Compound 217A, 3-[3-[(6R)-22,28-difluoro-3,6,10,10-tetramethyl-12,12,24-trioxo-12λ6,24λ4-dithia-3,4,19,30-tetrazapentacyclo[23.3.1.12,5.015,23.016,20]triaconta-1(29),2(30),4,15,17,20,22,25,27-nonaen-6-yl]phenyl]butanoic Acid] | B (a value above 5 °C and less than or equal to 10 °C is marked “B”) | A (a TECC value less than 12 is marked “A”) |
| Cn1nc2nc1-c1cc(ccc1F)Oc1c(F)cc3[nH]ccc3c1CCS(=O)(=O)CC(C)(C)CCCC2(CO)c1cccc(CCC(=O)O)c1 (stereo not drawn) [Compound 103, 3-[3-[22,28-Difluoro-6-(hydroxymethyl)-3,10,10-trimethyl-12,12-dioxo-24-oxa-12lambda6-thia-3,4,19,30-tetrazapentacyclo[23.3.1.12,5.015,23.016,20]triaconta-1(29),2(30),4,15,17,20,22,25,27-nonaen-6-yl]phenyl]propanoic Acid] | C (a value greater than 10 °C and less than or equal to 25 °C is marked “C”) | A (a TECC value less than 12 is marked “A”) |
| C[C@@H](Cc1cccc(C2(C)CCCC(C)(C)CS(=O)(=O)CCc3c(c(F)cc4[nH]ccc34)Oc3ccc(F)c(c3)-c3nc2nn3C)c1)C(=O)NOCC(O)CO (single isomer, unassigned) [Compound 148] | C (a value greater than 10 °C and less than or equal to 25 °C is marked “C”) | C (a value between 20 and 80 is marked “C”) |
